Measurements: patent US8293979B2, “Weed controller metabolism proteins, genes, thereof and use of the same” (Sumitomo Chemical Company, Limited, priority 2001, dated 2012)

Assays:
Barnyardgrass [1] = experiment: Herbicidal activity test, soil surface treatment; format: in vivo, Echinochloa crus-galli; parameters: key: 0: situations in which the condition of sprouting or vegetation at the time of examination of the plant utilized for the test was compared with and showed totally or substantially no difference with that of the untreated application; 10: situations in which the plant completely withered or the sprouting or vegetation was completely suppressed; settings: 500 g/ha, sprayed onto the surface of the soil after seeding, investigated after 19 days in a greenhouse
Description: (§1) Soil was packed into a round plastic pot having a diameter of 10 cm and depth of 10 cm. Barnyardgrass, Blackgrass, Ivyleaf morningglory were seeded. Five (5) parts of the test compound, 6 parts of sorpol3005X (Toho Chemical Company) and 89 parts of xylene were well mixed to produce an emulsion. A certain amount thereof was diluted with water containing 0.1% (v/v) of a sticking agent at a proportion of 1000 L for 1 hectare and was spread uniformly with a spray-gun onto the surface of the soil. After cultivating the plants for 19 days in a greenhouse, the herbicidal activity was investigated.
(§2) In the above Tables 3 and 4, the strength of the herbicidal activity is shown stepwise as 0, 1, 2, 3, 4, 5, 6, 7, 8, 9, and 10.

Ivyleaf morningglory [2] = experiment: Herbicidal activity test, foliage treatment; format: in vivo, Ipomoea hederacea; parameters: key: 0: situations in which the condition of sprouting or vegetation at the time of examination of the plant utilized for the test was compared with and showed totally or substantially no difference with that of the untreated application; 10: situations in which the plant completely withered or the sprouting or vegetation was completely suppressed; settings: sprayed onto the foliage of plants cultivated 10 days, investigated after 16 days in a greenhouse
Description: as §1, with “seeded and cultivated in a greenhouse for 10 days.” for “seeded.”, “all sides” for “surface”, “foliage from above the plant cultivated in the above pot.” for “soil.”, “16” for “19”, “activity of the test compound” for “activity”
as §2

Blackgrass [3] = experiment: Herbicidal activity test, soil surface treatment; format: in vivo, Alopercurus myosuroides; parameters: key: 0: situations in which the condition of sprouting or vegetation at the time of examination of the plant utilized for the test was compared with and showed totally or substantially no difference with that of the untreated application; 10: situations in which the plant completely withered or the sprouting or vegetation was completely suppressed; settings: 500 g/ha, sprayed onto the surface of the soil after seeding, investigated after 19 days in a greenhouse
Description: as §1, §2

Barnyardgrass [4] = experiment: Herbicidal activity test, foliage treatment; format: in vivo, Echinochloa crus-galli; parameters: key: 0: situations in which the condition of sprouting or vegetation at the time of examination of the plant utilized for the test was compared with and showed totally or substantially no difference with that of the untreated application; 10: situations in which the plant completely withered or the sprouting or vegetation was completely suppressed; settings: sprayed onto the foliage of plants cultivated 10 days, investigated after 16 days in a greenhouse
Description: as §1, with “seeded and cultivated in a greenhouse for 10 days.” for “seeded.”, “all sides” for “surface”, “foliage from above the plant cultivated in the above pot.” for “soil.”, “16” for “19”, “activity of the test compound” for “activity”
as §2

Ivyleaf morningglory [5] = experiment: Herbicidal activity test, soil surface treatment; format: in vivo, Ipomoea hederacea; parameters: key: 0: situations in which the condition of sprouting or vegetation at the time of examination of the plant utilized for the test was compared with and showed totally or substantially no difference with that of the untreated application; 10: situations in which the plant completely withered or the sprouting or vegetation was completely suppressed; settings: 500 g/ha, sprayed onto the surface of the soil after seeding, investigated after 19 days in a greenhouse
Description: as §1, §2

Blackgrass [6] = experiment: Herbicidal activity test, foliage treatment; format: in vivo, Alopercurus myosuroides; parameters: key: 0: situations in which the condition of sprouting or vegetation at the time of examination of the plant utilized for the test was compared with and showed totally or substantially no difference with that of the untreated application; 10: situations in which the plant completely withered or the sprouting or vegetation was completely suppressed; settings: sprayed onto the foliage of plants cultivated 10 days, investigated after 16 days in a greenhouse
Description: as §1, with “seeded and cultivated in a greenhouse for 10 days.” for “seeded.”, “all sides” for “surface”, “foliage from above the plant cultivated in the above pot.” for “soil.”, “16” for “19”, “activity of the test compound” for “activity”
as §2

[7] = system: present invention protein (A1); format: in vitro ADME, Streptomyces phaeochromogenes IFO12898; settings: E. coli JM109/pKSN657F cell suspension, compound at 100 ppm, shaking at 30° C., ethyl acetate layer, HPLC
Description: E. coli JM109/pKSN657F was cultured overnight at 37° C. in 3 ml of TB medium containing 50 μg/ml of ampicillin. A milliliter (1 ml) of the obtained culture medium was transferred to 100 ml of TB medium containing 50 μg/ml of ampicillin and cultured at 26° C. When OD660 reached about 0.5, 5-aminolevulinic acid was added to the final concentration of 500 μM, and the culturing was continued. Thirty (30) minutes thereafter, IPTG was added to a final concentration of 1 mM, and there was further culturing for 20 hours.
The cells were recovered from the culture medium, washed with 0.1M tris-HCl buffer (pH7.5) and suspended in 10 ml of 0.1M Tris-HCl buffer containing 1% glucose. Compound (VI) was added to the obtained cell suspension to a final concentration of 100 ppm and that was incubated with shaking at 30° C. At each of 0 hours after and 1 day after the start of shaking, 2 ml of the cell suspension were fractioned. Fifty microliters (50 μl) of 2N HCl were added to each and those were extracted with 2 ml of ethyl acetate. The obtained ethyl acetate layers were analyzed on a HPLC under reaction condition 1. Compared to the concentration of compound (VI) detected from the ethyl acetate layer prepared from the cell suspension at 0 hours after the start of shaking, the concentration of compound (VI) detected from the ethyl acetate later prepared from the cell suspension at 1 day after the start of shaking was lower. Further a peak, which was not detected from the ethyl acetate layer prepared from the cell suspension at 0 hours after the start of shaking, was detected from the ethyl acetate layer prepared from the cell suspension at 1 day after the start of shaking Mass spectrometry of the compound contained in said peak was conducted. […]
Other than utilizing compound (VIII) instead of compound (VI), there was conducted in accordance with the method described in Example 41(6), a culturing of E. coli JM109/pKSN657F, preparation of the cell suspension solution, incubation with shaking of the cell suspension solution to which compound (VIII) was added, reagent preparation from the cell suspension solution and HPLC analysis of the reagents. Compared to the concentration of compound (VIII) detected from the ethyl acetate layer prepared from the cell suspension at 0 hours after the start of shaking, the concentration of compound (VIII) detected from the ethyl acetate layer prepared from the cell suspension at 1 day after the start of shaking was lower. Further two peaks, which were not detected from the ethyl acetate layer prepared from the cell suspension at 0 hours after the start of shaking, were detected from the ethyl acetate layer prepared from the cell suspension at 1 day after the start of shaking Mass spectrometry of the compounds contained in said peaks were conducted. […]

[8] = system: present invention protein (A1); experiment: Metabolism of compounds by the present invention protein (A1), reaction solution, HPLC; format: in vitro ADME, Streptomyces phaeochromogenes IFO12898; settings: 12.5 ppm of compound, components A, B, C, 20 μl supernatant fraction of Example 4(2), 30° C. for 10 minutes
Description: There was prepared 100 μl of a reaction solution of 50 mM potassium phosphate buffer (pH7.0) containing 5 ppm of compound (XII), 3 mM of […] (hereinafter, referred to as “component A”) (Oriental Yeast Company), 1 mg/ml of a ferredoxin derived from spinach (hereinafter referred to as “component B”) (Sigma Company), 0.15 U/ml of ferredoxin reductase (hereinafter, referred to as “component C”) (Sigma Company) and 20 μl of the supernatant fraction recovered in Example 4(2). The reaction solution was maintained at 30° C. for 10 minutes. Further, there was prepared and maintained similarly 100 μl of a reaction solution of a 50 mM potassium phosphate buffer (pH 7.0) having no addition of at least one component utilized in the composition of the above reaction solution, selected from component A, component B, component C and the supernatant fraction prepared in Example 4(2). Ten microliters (10 μl) of 2N HCl and 500 μl of ethyl acetate were added and mixed into each of the reaction solutions after the maintenance. The resulting reaction solutions were centrifuged at 8,000×g to recover 490 μl of the ethyl acetate layer. After drying the ethyl acetate layers under reduced pressure, the residue was dissolved in 100 μl of 50 mM of potassium phosphate buffer (pH7.0). Forty microliters (40 μl) of the fraction solutions (hereinafter, the fraction solution derived from the reaction solution containing component A, component B, component C and 20 μl of supernatant fraction recovered in Example 4(2) is referred to as “(XII) metabolism solution (A1);” further, the fraction solution derived from the reaction solution containing no component A, no component B, no component C and no supernatant fraction recovered in Example 4(2) is referred to as “(XII) control solution (A1)”) were analyzed on a HPLC. Compared to the concentration of compound (XII) detected from (XII) control solution (A1), the concentration of compound (XII) detected from (XII) metabolism solution (A1) was lower. Further a peak, which was not detected from the (XII) control solution (A1), was detected from the (XII) metabolism solution (A1). Mass spectrometry was conducted for the compound contained in such a peak. The mass of the compound contained in such a peak was 14 smaller than the mass of compound (XII).
Other than utilizing 5 ppm of compound (XIII) instead of 5 ppm of compound (XII), reaction solutions were prepared and maintained similarly to the method described in Example 41(2). […] Compared to the concentration of compound (XIII) detected from (XIII) control solution (A1), the concentration of compound (XIII) detected from (XIII) metabolism solution (A1) was lower. Further a peak, which was not detected from the (XIII) control solution (A1), was detected from the (XIII) metabolism solution (A1). […]

[9] = system: present invention protein (A11); experiment: Metabolism of compounds by the present invention protein (A11), reaction solution, HPLC; format: in vitro ADME, Streptomyces nogalator IFO13445; settings: 12.5 ppm of compound, components A, B, C, 20 μl supernatant fraction of Example 32(2), 30° C. for 10 minutes
Description: There was prepared 100 μl of a reaction solution of 50 mM potassium phosphate buffer (pH7.0) containing 5 ppm of compound (XII), 3 mM of […] (hereinafter, referred to as “component A”) (Oriental Yeast Company), 1 mg/ml of a ferredoxin derived from spinach (hereinafter referred to as “component B”) (Sigma Company), 0.15 U/ml of ferredoxin reductase (hereinafter, referred to as “component C”) (Sigma Company) and 20 μl of the supernatant fraction recovered in Example 4(2). The reaction solution was maintained at 30° C. for 10 minutes. Further, there was prepared and maintained similarly 100 μl of a reaction solution of a 50 mM potassium phosphate buffer (pH 7.0) having no addition of at least one component utilized in the composition of the above reaction solution, selected from component A, component B, component C and the supernatant fraction prepared in Example 4(2). Ten microliters (10 μl) of 2N HCl and 500 μl of ethyl acetate were added and mixed into each of the reaction solutions after the maintenance. The resulting reaction solutions were centrifuged at 8,000×g to recover 490 μl of the ethyl acetate layer. After drying the ethyl acetate layers under reduced pressure, the residue was dissolved in 100 μl of 50 mM of potassium phosphate buffer (pH7.0). Forty microliters (40 μl) of the fraction solutions (hereinafter, the fraction solution derived from the reaction solution containing component A, component B, component C and 20 μl of supernatant fraction recovered in Example 4(2) is referred to as “(XII) metabolism solution (A1);” further, the fraction solution derived from the reaction solution containing no component A, no component B, no component C and no supernatant fraction recovered in Example 4(2) is referred to as “(XII) control solution (A1)”) were analyzed on a HPLC. Compared to the concentration of compound (XII) detected from (XII) control solution (A1), the concentration of compound (XII) detected from (XII) metabolism solution (A1) was lower. Further a peak, which was not detected from the (XII) control solution (A1), was detected from the (XII) metabolism solution (A1). Mass spectrometry was conducted for the compound contained in such a peak. […]
Other than utilizing 20 μl of the supernatant fraction recovered in Example 32(2) instead of 20 μl of the supernatant fraction recovered in Example 4(2), the reaction solutions were prepared and maintained in accordance with the method described in Example 41(2). […] Compared to the concentration of compound (XII) detected from (XII) control solution (A11), the concentration of compound (XII) detected from (XII) metabolism solution (A11) was lower. Further a peak, which was not detected from the (XII) control solution (A11), was detected from the (XII) metabolism solution (A11). […]

C[C@@H](Oc1cc(-n2c(=O)cc(C(F)(F)F)[nH]c2=O)c(F)cc1Cl)C(=O)O [compound (III)]
Herbicidal Activity Barnyardgrass (Barnyardgrass [1]): 0
Herbicidal Activity Ivyleaf Morningglory (Ivyleaf morningglory [2]; 125 g/ha): 0
Herbicidal Activity Ivyleaf Morningglory (Ivyleaf morningglory [2]; 500 g/ha): 0
Herbicidal Activity Blackgrass (Blackgrass [3]): 0
Herbicidal Activity Barnyardgrass (Barnyardgrass [4]; 125 g/ha): 0
Herbicidal Activity Barnyardgrass (Barnyardgrass [4]; 500 g/ha): 0
Herbicidal Activity Ivyleaf Morningglory (Ivyleaf morningglory [5]): 0
Herbicidal Activity Blackgrass (Blackgrass [6]; 125 g/ha): 0
Herbicidal Activity Blackgrass (Blackgrass [6]; 500 g/ha): 0

CCc1ccc(COc2ccc(-n3c(=O)cc(C(F)(F)F)n(C)c3=O)cc2)c(OC(C)C(=O)OC)c1 (stereo not shown) [compound (VI)]
concentration of the compound detected from the cell suspension at 1 day compared to 0 hours after the start of shaking [7]: lower

COC(=O)C1(C)Cc2c(c(Cl)cc(F)c2-n2c(=O)cc(C(F)(F)F)n(C)c2=O)O1 (stereo not shown) [compound (VIII)]
concentration of the compound detected from the cell suspension at 1 day compared to 0 hours after the start of shaking [7]: lower

C#CCN1C(=O)COc2ccc(-n3c(=O)cc(C(F)(F)F)n(C)c3=O)cc21 [compound (XI)]
concentration of the compound detected from the cell suspension at 1 day compared to 0 hours after the start of shaking [7]: lower

COC(=O)CO/C(C)=C(/Oc1cc(-n2c(=O)cc(C(F)(F)F)n(C)c2=O)c(F)cc1Cl)C(=O)O [compound (XVI)]
concentration of the compound detected from metabolism solution (A1) compared to control solution (A1) [8]: lower
concentration of the compound detected from metabolism solution (A11) compared to control solution (A11) [9]: lower

Cn1c(C(F)(F)F)cc(=O)n(-c2c(F)cc(Cl)c3oc(C(=O)O)cc23)c1=O [compound (XVII)]
concentration of the compound detected from metabolism solution (A1) compared to control solution (A1) [8]: lower
concentration of the compound detected from metabolism solution (A11) compared to control solution (A11) [9]: lower
